Values quoted from earlier work as cited in patent US11504319B2, “Process of coloring keratinous material comprising the use of an organosilicon compound, an effect pigment, a further coloring compound and a film-forming polymer III” (Henkel AG & Co. KGaA, priority 2019, dated 2022).

Details: 25° C.

solubility in water (in words) | SMILES | solubility in water
highly soluble | O=C([O-])C1=NN(c2ccc(S(=O)(=O)[O-])cc2)C(=O)C1N=Nc1ccc(S(=O)(=O)[O-])cc1.[Na+].[Na+].[Na+] (stereo not shown) [Acid Yellow 23, trisodium salt of 4,5-dihydro-5-oxo-1-(4-sulfophenyl)-4-((4-sulfophenyl)azo)-1H-pyrazole-3-carboxylic acid] | –
– | O=S(=O)([O-])c1ccc(N=Nc2c(O)ccc3ccccc23)cc1.[Na+] [Acid Orange 7, sodium salt of 4-[(2-hydroxy-1-naphthyl)azo]benzene sulphonate] | more than 7 g/L
– | O=C([O-])c1c(Cl)c(Cl)c(Cl)c(Cl)c1-c1c2c(Br)cc(=O)c(Br)c-2oc2c(Br)c(O)cc(Br)c12.O=C([O-])c1c(Cl)c(Cl)c(Cl)c(Cl)c1-c1c2c(Br)cc(=O)c(Br)c-2oc2c(Br)c(O)cc(Br)c12.[Na+].[Na+] [Acid Red 92, disodium salt of 3,4,5,6-tetrachloro-2-(1,4,5,8-tetrabromo-6-hydroxy-3-oxoxanthen-9-yl)benzoic acid] | greater than 10 g/L
– | Nc1cc(S(=O)(=O)[O-])cc2cc(S(=O)(=O)[O-])c(N=Nc3ccccc3)c(O)c12.[Na+].[Na+] [Acid Red 33, disodium salt of 5-amino-4-hydroxy-3-(phenylazo)-naphthalene-2,7-disulphonate] | 2500 µg/mL
